Legend:
Assay in all cases: relative viability (nuclei count vs DMSO), 5 days (fraction); higher = more cells survive
Avagacestat + Vorinostat = compound: NC(=O)[C@@H](CCC(F)(F)F)N(Cc1ccc(-c2ncon2)cc1F)S(=O)(=O)c1ccc(Cl)cc1 [Avagacestat] + O=C(CCCCCCC(=O)Nc1ccccc1)NO [Vorinostat] (partner 1 µM)
Method in brief: (§1)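 Lung cancer cell lines, seeded in 1536-well plates, were treated the following day by pin tool with a single drug or with five library-drug doses (not always all listed) in √10 steps on top of a fixed anchor-drug dose. Cells were fixed and nuclei stained in one step after 5 days, and nuclei were counted. Relative viability is the nuclei count for treated wells divided by that for vehicle wells, reported as medians of duplicate plates.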

Avagacestat + Alpelisib = compound: NC(=O)[C@@H](CCC(F)(F)F)N(Cc1ccc(-c2ncon2)cc1F)S(=O)(=O)c1ccc(Cl)cc1 [Avagacestat] + Cc1nc(NC(=O)N2CCC[C@H]2C(N)=O)sc1-c1ccnc(C(C)(C)C(F)(F)F)c1 [Alpelisib] (partner 2 µM)
Method in brief: as §1

Avagacestat + Navitoclax = compound: NC(=O)[C@@H](CCC(F)(F)F)N(Cc1ccc(-c2ncon2)cc1F)S(=O)(=O)c1ccc(Cl)cc1 [Avagacestat] + CC1(C)CCC(c2ccc(Cl)cc2)=C(CN2CCN(c3ccc(C(=O)NS(=O)(=O)c4ccc(N[C@H](CCN5CCOCC5)CSc5ccccc5)c(S(=O)(=O)C(F)(F)F)c4)cc3)CC2)C1 [Navitoclax] (partner 0.5 µM)
Method in brief: as §1

Avagacestat + Linsitinib = compound: NC(=O)[C@@H](CCC(F)(F)F)N(Cc1ccc(-c2ncon2)cc1F)S(=O)(=O)c1ccc(Cl)cc1 [Avagacestat] + C[C@]1(O)C[C@@H](c2nc(-c3ccc4ccc(-c5ccccc5)nc4c3)c3c(N)nccn32)C1 [Linsitinib] (partner 1 µM)
Method in brief: as §1

Cell Line | relative viability (Avagacestat + Vorinostat; first compound 0.08 µM) | relative viability (Avagacestat + Vorinostat; first compound 0.253 µM) | relative viability (Avagacestat + Vorinostat; first compound 0.8 µM) | relative viability (Avagacestat + Vorinostat; first compound 2.53 µM) | relative viability (Avagacestat + Vorinostat; first compound 8 µM) | relative viability (Avagacestat + Alpelisib; first compound 0.08 µM) | relative viability (Avagacestat + Alpelisib; first compound 0.253 µM) | relative viability (Avagacestat + Alpelisib; first compound 0.8 µM) | relative viability (Avagacestat + Alpelisib; first compound 2.53 µM) | relative viability (Avagacestat + Alpelisib; first compound 8 µM) | relative viability (Avagacestat + Navitoclax; first compound 0.08 µM) | relative viability (Avagacestat + Navitoclax; first compound 0.253 µM) | relative viability (Avagacestat + Navitoclax; first compound 0.8 µM) | relative viability (Avagacestat + Navitoclax; first compound 2.53 µM) | relative viability (Avagacestat + Navitoclax; first compound 8 µM) | relative viability (Avagacestat + Linsitinib; first compound 0.08 µM) | relative viability (Avagacestat + Linsitinib; first compound 0.253 µM) | relative viability (Avagacestat + Linsitinib; first compound 0.8 µM) | relative viability (Avagacestat + Linsitinib; first compound 2.53 µM) | relative viability (Avagacestat + Linsitinib; first compound 8 µM)
NCI-H1734 | 0.876 | 0.901 | 0.829 | 0.761 | 0.824 | 0.896 | 0.641 | 0.737 | 0.674 | 0.67 | 1.11 | 0.96 | 0.875 | 0.777 | 0.724 | 1.2 | 0.924 | 0.946 | 0.819 | 0.782
NCI-H1944 | 0.716 | 0.635 | 0.497 | 0.554 | 0.54 | 0.874 | 0.857 | 0.844 | 0.667 | 0.758 | 1.14 | 1.09 | 1.03 | 0.989 | 0.993 | 1.28 | 1.15 | 1.47 | 1.04 | 1.01
HCC-366 | 0.472 | 0.426 | 0.437 | 0.31 | 0.385 | 0.749 | 0.679 | 0.565 | 0.361 | 0.308 | 1.23 | 1.48 | 1 | 1.09 | 1.01 | 1.06 | 0.782 | 0.835 | 0.471 | 0.373
LXF-289 | 0.954 | 0.884 | 0.791 | 0.921 | 0.86 | 1.08 | 1.15 | 1.04 | 1.1 | 0.949 | 0.964 | 0.996 | 1 | 1 | 0.885 | 1.02 | 1.02 | 0.957 | 1.02 | 0.82
A-427 | 0.958 | 0.945 | 1.03 | 0.946 | 0.952 | 1.14 | 1.2 | 1.1 | 1.07 | 1.14 | 0.994 | 0.99 | 1.03 | 0.967 | 0.968 | 1.11 | 1.24 | 1.16 | 1.15 | 1.22
COR-L 105 | 1.08 | 0.891 | 0.87 | 0.792 | 0.884 | 1.14 | 0.917 | 0.976 | 0.679 | 0.612 | 0.851 | 0.604 | 0.779 | 0.595 | 0.648 | 0.99 | 0.972 | 0.59 | 0.964 | 0.755
NCI-H520 | 0.8 | 0.767 | 0.773 | 0.637 | 0.639 | 1.16 | 0.868 | 0.74 | 0.7 | 0.715 | 1.16 | 1.15 | 1.06 | 0.95 | 1.06 | 1.15 | 1.09 | 0.933 | 0.864 | 0.889
NCI-H2228 | 0.752 | 0.787 | 0.569 | 0.641 | 0.511 | 0.842 | 0.619 | 0.773 | 0.567 | 0.698 | 1.25 | 1.19 | 1.08 | 0.903 | 0.956 | 1.04 | 0.765 | 0.786 | 0.62 | 0.534
HCC-78 | 0.499 | 0.458 | 0.416 | 0.391 | 0.351 | 0.299 | 0.358 | 0.347 | 0.269 | 0.321 | 0.884 | 0.818 | 0.791 | 0.665 | 0.68 | 0.568 | 0.54 | 0.706 | 0.396 | 0.406
NCI-H596 | 0.591 | 0.643 | 0.609 | 0.588 | 0.627 | 0.584 | 0.482 | 0.479 | 0.466 | 0.491 | 1.21 | 1.02 | 0.928 | 0.792 | 0.865 | 1.15 | 1.21 | 1 | 0.827 | 0.986
UMC-11 | 0.388 | 0.396 | 0.398 | 0.396 | 0.412 | 1.22 | 1.19 | 1.21 | 0.885 | 0.933 | 0.324 | 0.316 | 0.321 | 0.286 | 0.299 | 1.2 | 1.12 | 1.18 | 1.04 | 0.933
NCI-H441 | 0.991 | 0.932 | 0.899 | 0.761 | 0.595 | 0.92 | 0.761 | 1.05 | 0.973 | 0.986 | 0.504 | 0.491 | 1.01 | 0.49 | 0.668 | 0.697 | 0.565 | 0.564 | 0.49 | 0.461
EKVX | 0.826 | 0.783 | 0.904 | 0.75 | 0.68 | 0.974 | 0.971 | 0.878 | 0.832 | 0.811 | 1.12 | 1.15 | 1.04 | 0.792 | 0.853 | 1.22 | 0.996 | 1.25 | 0.847 | 0.703
NCI-H1755 | 0.884 | 0.782 | 0.891 | 0.666 | 0.791 | 1.24 | 1.1 | 1.05 | 0.939 | 0.777 | 1.08 | 1.21 | 1.09 | 0.959 | 0.943 | 1.05 | 1.05 | 1.03 | 0.991 | 0.951
NCI-H647 | 0.743 | 0.64 | 0.579 | 0.597 | 0.567 | 1.46 | 0.994 | 1.3 | 0.959 | 0.884 | 1.27 | 1.5 | 1.31 | 1.02 | 0.952 | 1.78 | 1.35 | 1.12 | 1.16 | 1.19
EPLC-272H | 0.413 | 0.318 | 0.539 | 0.367 | 0.321 | 1.05 | 1 | 1.02 | 1.09 | 0.865 | 1.51 | 1.13 | 1.32 | 1.21 | 0.964 | 1.4 | 1.2 | 1.4 | 1.32 | 0.933
